According to US11965039B2, “Compstatin analogues and their medical uses” (priority 2018, dated 2024):

Tested on: classical complement pathway
Test: In vitro haemolysis assay (inhibition of classical complement pathway)
Type: cell-based, human
Conditions: human serum, sensitized sheep red blood cells; Table 3, given as upper bounds; read-out: IC50, inhibition of hemolysis
Method: The in vitro effect of the compounds of the present invention was assessed by measuring their inhibitory effect of the classical complement pathway in a haemolysis assay. Briefly, compounds of the present invention and reference compounds were dissolved in DMSO and diluted in Tris/Casein Assay Buffer (10 mM Tris, 145 mM NaCl, 0.5 mM MgCl2, 0.15 mM CaCl2), and 0.1% W/V Casein, adjusted to pH 7.4) as 9-point serial dilutions in a 96 well plate. Sensitized sheep red blood cells (RBC) coated with rabbit anti-sheep erythrocyte antiserum (Complement Technology, Inc., TX, USA) were washed in Tris/Casein Assay Buffer. […] from each well of diluted compound was added to a 96-well plate containing 50 μL diluted human serum (Complement Technology, Inc., TX, USA) and incubated for 15 minutes at room temperature. The serum dilution factor was optimized for every serum batch to obtain 70-90% of maximal haemolysis using the protocol. Then 50 μL sensitized sheep red blood cells were added to all wells (10^7 per well). After 30 minutes of incubation at 37 QC with gentle agitation, the reaction was stopped by addition of 50 μL Tris STOP Buffer per well (10 mM EDTA, 10 mM Tris, 145 mM NaCl adjusted to pH 7.4). The RBCs were then removed by centrifugation and the resulting supernatant measured for hemolysis by absorbance at 405 nm. […]

“Ac-IC(1)IWQDWGEHRC(1)TEG-K((15-carboxy-pentadecanoyl)-[(Piperazine-1-yl)-acetyl][Peg3][Peg3])-NH2 [Compound 95]” was tested, and the IC50 was under 500 nM.
